Test results published in US6358885B1, “Substituted phenylheterocyclic herbicides” (Mississippi State University, priority 1992, dated 2002).

Columns and labels:
[1] = system: cocklebur; test: Test B preemergence/postemergence greenhouse plant response rating 0 to 10; type: in vivo, Xanthium pensylvanicum; settings: for Plant response rating, Cocklebur: 0 to 10 scale
Method in brief: (§1)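 Test chemicals, dissolved in a non-phytotoxic solvent, were applied to soil at planting and, at the same time, over foliage of seedlings at the one to four leaf stage.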

[2] = system: rice; test: Test C flood test plant response rating 0 to 100; type: in vivo, Oryza sativa
Source text: (§2) The compounds evaluated in this test were formulated in a non-phytoxic solvent and applied to the soil surface before plant seedlings emerged (preemergence application), to water that covered the soil surface (flood application), and to plants that were in the one-to-four leaf stage (postemergence application). A sandy loam soil was used for the preemergence and postemergence tests, while a silt loam soil was used in the flood test. Water depth was approximately 2.5 cm for the flood test and was maintained at this level for the duration of the test. Plant species in the preemergence and postemergence tests consisted of barley (Hordeum vulgare), bedstraw (Galium aparine), blackgrass (Alopecurus myosuroides), chickweed (Stellaria media), corn (Zea mays), cotton (Gossypium hirsutum), crabgrass (Digitaria sanguinalis), downy brome (Bromus tectorum), giant foxtail (Setaria faberii), lambsquarters (Chenopodium album), morningglory (Ipomoea hederacea), pigweed ([…]), rape (Brassica napus), ryegrass (Lolium multiflorum), sorghum (Sorghum bicolor), soybean (Glycine max), speedwell (Veronica persica), sugar beet (Beta vulgaris), velvetleaf (Abutilon theophrasti), wheat (Triticum aestivum), wild buckwheat (Polygonum convolvulus), and wild oat (Avena fatua). All plant species were planted one day before application of the compound for the preemergence portion-of this test. Plantings of these species were adjusted to produce plants of appropriate size for the post-emergence portion of the test. […] All plant species were grown using normal greenhouse practices. Visual evaluations of injury expressed on treated plants, when compared to untreated controls, were recorded approximately fourteen to twenty one days after application of the test compound. […] A dash (-) response means no test result.

[3] = system: pigweed; test: Test C preemergence/postemergence greenhouse plant response rating 0 to 100; type: in vivo, Amaranthusretroflexus; settings: POSTEMERGENCE
Method in brief: (§3)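 Compounds in non-phytotoxic solvent applied preemergence to sandy loam one day after planting, postemergence at the 1–4 leaf stage, or to ~2.5 cm floodwater over silt loam.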

[4] = system: purple nutsedge; test: Test B preemergence/postemergence greenhouse plant response rating 0 to 10; type: in vivo, Cyperus rotundus; settings: 0 to 10 scale
Method in brief: as §1

[5] = system: bedstraw; test: as above; type: in vivo, Galium aparine; settings: POSTEMERGENCE
Method in brief: as §1

[6] = system: barley; test: as above; type: in vivo, Hordeum vulgare; settings: for Plant response rating, Barley: 0 to 10 scale
Method in brief: as §1

[7] = system: crabgrass; test: as above; type: in vivo, Digitaria spp.; settings: for Plant response rating, Crabgrass: 0 to 10 scale
Method in brief: as §1

[8] = system: umbrella sedge; test: Test C flood test plant response rating 0 to 100; type: in vivo, Cyperus difformis
Source text: as §2

[9] = system: sorghum; test: Test C preemergence/postemergence greenhouse plant response rating 0 to 100; type: in vivo, Sorghum bicolor; settings: POSTEMERGENCE
Method in brief: as §3

[10] = system: soybean; test: Test B preemergence/postemergence greenhouse plant response rating 0 to 10; type: in vivo, Glycine max; settings: 0 to 10 scale
Method in brief: as §1

[11] = system: lambsquarters; test: as above; type: in vivo, Chenopodium album; settings: 0 to 10 scale
Method in brief: as §1

[12] = system: rice; test: as above; type: in vivo, Oryza sativa; settings: 0 to 10 scale
Method in brief: as §1

[13] = system: morningglory; test: Test C preemergence/postemergence greenhouse plant response rating 0 to 100; type: in vivo, Ipomoea hederacea; settings: POSTEMERGENCE
Method in brief: as §3

[14] = system: sugar beet; test: Test B preemergence/postemergence greenhouse plant response rating 0 to 10; type: in vivo, Beta vulgaris; settings: 0 to 10 scale
Method in brief: as §1

[15] = system: barnyardgrass; test: Test C flood test plant response rating 0 to 100; type: in vivo, Echinochloa crus-galli
Source text: as §2

[16] = system: corn; test: Test C preemergence/postemergence greenhouse plant response rating 0 to 100; type: in vivo, Zea mays; settings: POSTEMERGENCE
Method in brief: as §3

[17] = system: blackgrass; test: Test B preemergence/postemergence greenhouse plant response rating 0 to 10; type: in vivo, Alopecurus myosuroides; settings: for Plant response rating, Blackgrass: 0 to 10 scale
Method in brief: as §1

[18] = system: rape; test: as above; type: in vivo, Brassica napus; settings: 0 to 10 scale
Method in brief: as §1

[19] = POSTEMERGENCE section, flood test, Rate 1 g/ha
[20] = POSTEMERGENCE section, flood test, Rate 4 g/ha
[21] = Rate 16 g/ha, under POSTEMERGENCE head (flood test species)
[22] = flood test species listed under POSTEMERGENCE, 62 g/ha, 0 to 100 scale

CC(C)N1C(=O)COc2cc(F)c(-c3nn4c(c3Cl)CCCC4)cc21 [Compound 31]
Plant response rating, Cocklebur ([1]; POSTEMERGENCE, Rate 10 g/ha): 9 | Plant response rating (0 to 10 scale), Cocklebur ([1]; POSTEMERGENCE, Rate 50 g/ha): 9 | Plant response rating, Cocklebur ([1]; PREEMERGENCE, Rate 10 g/ha): 0 | Plant response rating, Cocklebur ([1]; PREEMERGENCE, Rate 50 g/ha): 3 | Plant response rating (0 to 100), Rice Japonica [2, 19]: 0 | Plant response rating (0 to 100), Rice Japonica [2, 20]: 0 | Plant response rating (0 to 100), Rice Japonica [2, 21]: 35 | Plant response rating Rice Japonica [2, 22]: 50 | Plant response rating Pigweed ([3]; 62 g/ha, 0 to 100 scale): 100 | Plant response rating (0 to 100), Pigweed ([3]; Rate 1 g/ha): 95 | Plant response rating (0 to 100), Pigweed ([3]; Rate 4 g/ha): 100 | Plant response rating (0 to 100), Pigweed ([3]; Rate 16 g/ha): 100 | Plant response rating, Nutsedge ([4]; POSTEMERGENCE, Rate 10 g/ha): 2 | Plant response rating, Nutsedge ([4]; POSTEMERGENCE, Rate 50 g/ha): 5 | Plant response rating, Nutsedge ([4]; PREEMERGENCE, Rate 50 g/ha): 0 | Plant response rating, Bedstraw ([5]; Rate 10 g/ha, 0 to 10 scale): 10 | Plant response rating (0 to 10 scale), Bedstraw ([5]; Rate 50 g/ha): 10 | Plant response rating, Barley ([6]; POSTEMERGENCE, Rate 10 g/ha): 5 | Plant response rating (0 to 10 scale), Barley ([6]; POSTEMERGENCE, Rate 50 g/ha): 5 | Plant response rating, Barley ([6]; PREEMERGENCE, Rate 10 g/ha): 0 | Plant response rating, Barley ([6]; PREEMERGENCE, Rate 50 g/ha): 0 | Plant response rating, Crabgrass ([7]; POSTEMERGENCE, Rate 10 g/ha): 4 | Plant response rating (0 to 10 scale), Crabgrass ([7]; POSTEMERGENCE, Rate 50 g/ha): 4 | Plant response rating, Crabgrass ([7]; PREEMERGENCE, Rate 10 g/ha): 0 | Plant response rating, Crabgrass ([7]; PREEMERGENCE, Rate 50 g/ha): 2 | Plant response rating (0 to 100), Umbrella sedge [8, 19]: 0 | Plant response rating (0 to 100), Umbrella sedge [8, 20]: 0 | Plant response rating (0 to 100), Umbrella sedge [8, 21]: 0 | Plant response rating Umbrella sedge [8, 22]: 80 | Plant response rating, Sorghum ([9]; 62 g/ha, 0 to 100 scale): 50 | Plant response rating (0 to 100), Sorghum ([9]; Rate 1 g/ha): 20 | Plant response rating (0 to 100), Sorghum ([9]; Rate 4 g/ha): 40 | Plant response rating (0 to 100), Sorghum ([9]; Rate 16 g/ha): 50 | Plant response rating, Soybean ([10]; POSTEMERGENCE, Rate 10 g/ha): 7 | Plant response rating, Soybean ([10]; POSTEMERGENCE, Rate 50 g/ha): 7 | Plant response rating, Soybean ([10]; PREEMERGENCE, Rate 50 g/ha): 0 | Plant response rating, Lambsquarter ([11]; POSTEMERGENCE, Rate 10 g/ha): 10 | Plant response rating, Lambsquarter ([11]; POSTEMERGENCE, Rate 50 g/ha): 10 | Plant response rating, Lambsquarter ([11]; PREEMERGENCE, Rate 50 g/ha): 10 | Plant response rating, Rice ([12]; POSTEMERGENCE, Rate 10 g/ha): 4 | Plant response rating, Rice ([12]; POSTEMERGENCE, Rate 50 g/ha): 7 | Plant response rating, Rice ([12]; PREEMERGENCE, Rate 50 g/ha): 0 | Plant response rating, Morningglory ([13]; 62 g/ha, 0 to 100 scale): 100 | Plant response rating (0 to 100), Morningglory ([13]; Rate 1 g/ha): 70 | Plant response rating (0 to 100), Morningglory ([13]; Rate 4 g/ha): 100 | Plant response rating (0 to 100), Morningglory ([13]; Rate 16 g/ha): 100 | Plant response rating, Sugar beet ([14]; POSTEMERGENCE, Rate 10 g/ha): 10 | Plant response rating, Sugar beet ([14]; POSTEMERGENCE, Rate 50 g/ha): 10 | Plant response rating, Sugar beet ([14]; PREEMERGENCE, Rate 50 g/ha): 10 | Plant response rating (0 to 100), Barnyardgrass [15, 19]: 20 | Plant response rating (0 to 100), Barnyardgrass ([15]; Rate 4 g/ha, under POSTEMERGENCE head (flood test species)): 65 | Plant response rating (0 to 100), Barnyardgrass [15, 21]: 90 | Plant response rating, Barnyardgrass [15, 22]: 100 | Plant response rating, Corn ([16]; 62 g/ha, 0 to 100 scale): 50 | Plant response rating (0 to 100), Corn ([16]; Rate 1 g/ha): 20 | Plant response rating (0 to 100), Corn ([16]; Rate 4 g/ha): 30 | Plant response rating (0 to 100), Corn ([16]; Rate 16 g/ha): 40 | Plant response rating, Blackgrass ([17]; POSTEMERGENCE, Rate 10 g/ha): 4 | Plant response rating (0 to 10 scale), Blackgrass ([17]; POSTEMERGENCE, Rate 50 g/ha): 4 | Plant response rating, Blackgrass ([17]; PREEMERGENCE, Rate 10 g/ha): 3 | Plant response rating, Blackgrass ([17]; PREEMERGENCE, Rate 50 g/ha): 6 | Plant response rating, Rape ([18]; POSTEMERGENCE, Rate 10 g/ha): 5 | Plant response rating, Rape ([18]; POSTEMERGENCE, Rate 50 g/ha): 9 | Plant response rating, Rape ([18]; PREEMERGENCE, Rate 50 g/ha): 1
